Experimental findings from patent US20110312897A1, “CATHEPSIN L PROTEOLYTICALLY PROCESSES HISTONE H3 DURING MOUSE EMBRYONIC STEM CELL DIFFERENTIATION” (THE ROCKEFELLER UNIVERSITY, priority 2008, published 2011) are described below.

One experiment concerns the target T1, Cathepsin L (Mus musculus, UniProt P06797).
T1 construct: endogenous in cells; host or cells: mouse ES cells (LF2 line), RA-differentiated
Briefly: Chemical inhibition of Cathepsin L in RA-differentiating ESCs (immunoblot). Type of experiment: cell-based. To be noted: 10 uM in cell media, RA differentiation. How it is done:
(§1) ES cells (LF2 line) were cultured as previously described (Bernstein et al., “Mouse Polycomb Proteins Bind Differentially to Methylated Histone H3 and RNA and are Enriched in Facultative Heterochromatin,” Mol Cell Biol 26:2560-2569 (2006), which is hereby incorporated by reference in its entirety). Cells were grown on gelatin-coated plates without feeder cells and maintained in an undifferentiated state through culture in KODMEM (Invitrogen 1082-9018)), 2 mM L-glutamine (Sigma G7513), 15% ES grade fetal bovine serum (Gibco 10439-024), 10^−4 mM 2-mercaptoethanol, and leukemia inhibitory factor (LIF). To differentiate, cells were plated sparsely at ˜1*10^4 cells/cm^2, allowed to adhere overnight and then fed with differentiation media containing DMEM, 10% FBS, 10^−4 mM 2-mercaptoethanol and, for retinoic acid (RA) differentiation, 100 nM all-trans-RA (Sigma R2625). Embryoid body formation was accomplished by splitting partially trypsinized cells onto non-treated petri dishes and allowing cells to cluster. Chemical inhibition of Cathepsin L was accomplished by adding 10 uM [final] Cathepsin L I inhibitor (Calbiochem, Cat. No. 219402) to the cell media.
Whole cell extracts were prepared by resuspending fresh or flash frozen cell pellets in SDS-Laemmli sample buffer and boiling immediately. […]
(§2) To further assess whether Cathepsin L causes histone H3 cleavage in vivo, a commercially available, cell-permeable Cathepsin L specific inhibitor, Cathepsin L Inhibitor I, was used Inhibition of Cathepsin L using a chemical inhibitor allowed the effect of Cathepsin L inhibition to be assessed within a single, wild-type cell line rather than comparing individual cell lines created by drug selection. […]
For orientation: A western blot detects proteins with antibodies after separation by electrophoresis.

The next experiment addresses T2, Cathepsin B (Mus musculus, UniProt P10605).
T2 construct: endogenous in cells; host or cells: mouse ES cells (LF2 line), RA-differentiated
Kind of experiment: Chemical inhibition in RA-differentiating ESCs, Cathepsin B immunoblot. Format: cell-based. The following applies: 10 uM in cell media, RA differentiation, vs control cells. On the procedure: ES cells (LF2 line) were cultured as previously described (Bernstein et al., “Mouse Polycomb Proteins Bind Differentially to Methylated Histone H3 and RNA and are Enriched in Facultative Heterochromatin,” Mol Cell Biol 26:2560-2569 (2006), which is hereby incorporated by reference in its entirety). Cells were grown on gelatin-coated plates without feeder cells and maintained in an undifferentiated state through culture in KODMEM (Invitrogen 1082-9018)), 2 mM L-glutamine (Sigma G7513), 15% ES grade fetal bovine serum (Gibco 10439-024), 10^−4 mM 2-mercaptoethanol, and leukemia inhibitory factor (LIF). To differentiate, cells were plated sparsely at ˜1*10^4 cells/cm^2, allowed to adhere overnight and then fed with differentiation media containing DMEM, 10% FBS, 10^−4 mM 2-mercaptoethanol and, for retinoic acid (RA) differentiation, 100 nM all-trans-RA (Sigma R2625). […]
as §2

The next experiment relates to differentiating ESCs. Briefly: Pluripotency and lineage marker expression in differentiating ESCs (immunoblot, Q-PCR). The following applies: for Nanog expression: inhibitor vs control cells. Format: cell-based, mouse.
Source text: FIGS. 15A-15C show the effect of in vivo chemical inhibition of Cathepsin L on the transcriptional profile of differentiating ESCs. Cells were differentiated with RA in the presence of either Cathepsin L I inhibitor or DMSO alone, as in FIG. 6B. mRNA was isolated from those cells at the time points indicated, reverse transcribed into cDNA, and assayed for the expression of specific genes by Q-PCR with SYBR green. The data shown in FIGS. 15A-15C represent the average of two independent experiments.
as §1
RNA was isolated from undifferentiated and +RA differentiating ESCs using Trizol reagent as directed by the manufacturer (Invitrogen Cat. No. 15596-018). RNA was transcribed into cDNA using the First Strand Superscript kit (Invitrogen Cat. No. 18080-051) and analyzed by quantitative PCR using SYBRgreen reagent (Applied Biosystems Cat. No. 4309155).
Importantly, neither Oct-3/4 nor Cathepsin B levels (FIG. 6C, panels d and e) appeared to change upon addition of the inhibitor.

The target in another experiment is H3 cleavage activity (Mus musculus, UniProt P06797). Briefly: H3 cleavage activity with addition of chelators. The following applies: moderately high concentrations. Format: biochemical. On the procedure:
Extracts were incubated in buffer (10 mM HEPES, 10 mM KCl, 1.5 mM MgCl2, 0.34M sucrose, 10% glycerol, 5 mM β-mercaptoethanol, all final) with 0.1 μg/μl rH3-HIS (purified from E. coli) and incubated at 37° C. for 1-3 hours. […] For MS analysis, reactions were quenched by addition of 0.1% (final) TFA. rCathepsin L (R&D Systems, # 1515-CY-010), rCathepsin B (R&D Systems Cat No. BAF965), and rCathepsin K (Calbiochem Cat. No. 342001) were purchased from commercial sources and tested in the assay with rH[…].

Experiment [1] deals with T3, H3 protease activity in fraction #23 (Mus musculus, UniProt P06797).
T3 construct: a double chain mature form at ˜25 kD and ˜5 kD; endogenous in cells; host or cells: chromatin of 3 days +RA differentiating mouse ESCs (LF2), hydroxyapatite fraction #23
Briefly: In vitro H3 cleavage assay of hydroxyapatite fraction #23 +/- protease inhibitors. Type of experiment: biochemical. On the procedure: Extracts were incubated in buffer (10 mM HEPES, 10 mM KCl, 1.5 mM MgCl2, 0.34M sucrose, 10% glycerol, 5 mM β-mercaptoethanol, all final) with 0.1 μg/μl rH3-HIS (purified from E. coli) and incubated at 37° C. for 1-3 hours. Reactions were stopped by addition of 5×SDS sample buffer and boiling; results were analyzed by immunoblotting with HIS-HRP and/or H3.cs1 antibody. For MS analysis, reactions were quenched by addition of 0.1% (final) TFA. rCathepsin L (R&D Systems, # 1515-CY-010), rCathepsin B (R&D Systems Cat No. BAF965), and rCathepsin K (Calbiochem Cat. No. 342001) were purchased from commercial sources and tested in the assay with rH3-HIS.
Three days+RA differentiating ESC chromatin pellets were solubilized by sonication in buffer A (80 mM NaPO^−4, 200 mM NaCl), injected onto a 2 or 5 mL hydroxyapatite column (BioRad), and fractionated with a 200 mM to 2M NaCl gradient. Each fraction was then assayed as described above. […] Digest was then acidified with glacial acetic acid and aliquots of samples were analyzed using an LTQ-FT as described above. Data was searched against a mouse database using SEQUEST (Eng et al., Journal of the American Society of Mass Spectrometry 5:976-989 (1994), which is hereby incorporated by reference in its entirety). All spectra of interest were manually validated.
To validate further the identification of Cathepsin L as a histone H3 protease, the enriched fractions were tested with different classes of protease inhibitors in the H3 cleavage assay.

For another experiment, the target named is T4, rCathepsin L (Mus musculus, UniProt P06797).
T4 construct: purchased R&D Systems 1515-CY-010
Briefly: ELISA based H3cs.1 cleavage assay of H3 15-31 peptides. Type of experiment: biochemical. The following applies: pH 7.5 and pH 5.5; compared to unmodified H3 15-31 peptide. How it is done:
FIG. 7A is an immunoblot showing cleavage of the modified recombinant histone 3 substrates following incubation with rCathepsin L. The four rH3 substrates used in the cleavage assay include: 1=rH3 unmodified, 2=rH3 alkylated to K27me2, 3=rH3 pan-acetylated with acetic anhydride, 4=rH3+K27me2 pan-acetylated with acetic anhydride. FIG. 7B is a graph showing the amount of recombinant H3 cleavage product formed following incubation with Cathepsin L. H3 cleavage reactions were performed as in FIG. 7A using synthesized H3 peptides representing amino acids 15 to 31. Reactions were incubated with ˜250 pmol peptide and quenched with 0.1% TFA before being plated in duplicate for ELISA with the H3cs.1 antibody. Signal was normalized to that of mock reactions for each peptide. Results represent three independent experiments. […] Binding decreases 3-fold with cleaved peptide. p<0.01. Kds are in μM±SEM. Data points represent the mean±SD
In order to test the effect of these modifications more quantitatively and specifically, a set of five peptides with identical backbone sequences flanking the H3 cleavage site (H3 15-31) were synthesized and then modified as follows: unmodified, K18 acetyl, K23 acetyl, K18ac+K23ac, and K27me2. An ELISA based assay using the H3cs.1 antibody described previously (characterized in FIG. 11) was used to quantitatively measure the H3cs.1 cleavage activity of rCathepsin L on these peptides.
For orientation: An ELISA detects its analyte on a solid surface through an enzyme-linked reagent.

[2] abbreviates: Q-PCR, after 3 days of differentiation, vs control cells.

Where a SMILES comes first, the peptide text is derived from it. Where no end group is shown, it is not given here. The star is where a group is joined. Cbz = O=C(OCc1ccccc1)*; CH2F = FC*

T4 sequence (P06797 114-334): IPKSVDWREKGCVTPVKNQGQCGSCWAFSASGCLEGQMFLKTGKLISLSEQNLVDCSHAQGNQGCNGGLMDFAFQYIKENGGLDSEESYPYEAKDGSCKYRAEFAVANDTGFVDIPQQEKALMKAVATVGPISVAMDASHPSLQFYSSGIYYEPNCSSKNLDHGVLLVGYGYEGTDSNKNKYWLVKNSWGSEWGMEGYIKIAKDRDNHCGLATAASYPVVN
T1 sequence (P06797 114-334): as above
T3 sequence (P06797 114-288 limits assumed): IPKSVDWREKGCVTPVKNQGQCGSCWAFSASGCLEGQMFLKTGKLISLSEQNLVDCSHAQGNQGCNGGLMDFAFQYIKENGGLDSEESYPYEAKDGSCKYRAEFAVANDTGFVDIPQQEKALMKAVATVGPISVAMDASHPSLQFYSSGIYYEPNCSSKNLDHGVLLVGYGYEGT
T3 sequence (P06797 291-334 limits assumed): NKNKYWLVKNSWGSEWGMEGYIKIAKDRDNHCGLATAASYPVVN
Chain of H3 cleavage activity (P06797 114-334): as the sequence (P06797 114-334) above
T2 sequence (P10605 80-333): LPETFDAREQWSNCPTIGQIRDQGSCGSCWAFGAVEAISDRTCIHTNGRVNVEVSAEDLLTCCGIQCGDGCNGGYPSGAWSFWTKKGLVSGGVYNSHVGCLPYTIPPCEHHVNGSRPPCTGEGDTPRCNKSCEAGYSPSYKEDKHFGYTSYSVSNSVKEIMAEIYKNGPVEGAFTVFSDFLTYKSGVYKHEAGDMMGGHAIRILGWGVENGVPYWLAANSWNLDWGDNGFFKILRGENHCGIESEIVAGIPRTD

Turning to `O=C(NC(Cc1ccccc1)C(=O)NC(Cc1ccccc1)C(=O)CF)OCc1ccccc1` (stereo not drawn) [Cathepsin L Inhibitor I] (Cbz-Phe-Phe-CH2F; configuration not given here), the “all cleavage detected by the H3-general antibody” value on Cathepsin L is given as “abolished”. Moreover, on Cathepsin L (vs DMSO), the “histone H3 cleavage (H3-general and H3.cs1 antibodies)” value was “decreased significantly”; the “processing of Cathepsin L from intermediate form into mature form” value is listed as “significant failure to fully process Cathepsin L”. For the same molecule, the “Cathepsin B levels” value on Cathepsin B is “consistency of Cathepsin B levels”. In the experiment with differentiating ESCs (setting [2]), the Nestin expression entry was “trend toward maintaining higher expression” and the Pax3 expression result is “trend toward maintaining higher expression”. In addition, in the experiment with differentiating ESCs (Q-PCR), the Nanog expression result is “remains unaffected”. In addition, the Nanog expression entry in the experiment with differentiating ESCs (Q-PCR, listed as Cathepsin L I inhibitor) is listed as “does not differ significantly”. Moreover, in the experiment with differentiating ESCs (Q-PCR, vs control), the Gata6 expression result was “decreased expression” and the Sox17 expression entry was “decreased expression”. Moreover, in the experiment with differentiating ESCs (Q-PCR, vs control cells), the HoxA1 expression result was “did not show any significant trend” and the Musashi expression result was “did not show any significant trend”. For the same molecule, the “Oct-3/4 loss pattern (pluripotency marker)” value with differentiating ESCs (immunoblot, RA differentiation) is given as “unchanged”.
For the molecule `O=C(O)CN(CCN(CC(=O)O)CC(=O)O)CC(=O)O` [EDTA, Ethylenediaminetetraacetic acid], at H3 cleavage activity, the H3 cleavage activity result is listed as “Significant inhibition”.
In the case of `NCCc1ccc(S(=O)(=O)F)cc1` [AEBSF], the H3 cleavage activity result in experiment [1] (AEBSF 2 mM and 10 mM) is “not at the lower concentrations tested”; in experiment [1] (AEBSF 20 mM), “modest reduction in cleavage activity”.
As for “K27me2: synthesized H3 15-31 peptide modified with K27me2 (APRKQLATKAARKSAPA; K27 dimethylation; UniProt P68433 16-32, looked up, fragment)”, the “H3cs.1 cleavage activity of rCathepsin L on peptide” value with rCathepsin L is given as “strongly increases”.
The same measure, in the same setting: the result for “K18 acetyl: synthesized H3 15-31 peptide acetylated at K18 (APRKQLATKAARKSAPA; K18 acetylation; UniProt P68433 16-32, looked up, fragment)” reads “increases”.
The same measure, in the same setting: the result for “K18ac+K23ac: synthesized H3 15-31 peptide acetylated at K18 and K23 (APRK(Ac)QLATK(Ac)AARKSAPA; UniProt P68433 16-32, looked up, fragment)” reads “very little cleavage activity”; that for “K23ac: synthesized H3 15-31 peptide acetylated at K23 (APRKQLATK(Ac)AARKSAPA; UniProt P68433 16-32, looked up, fragment)”, “very little cleavage activity”.
With `O=C(O)CN(CCOCCOCCN(CC(=O)O)CC(=O)O)CC(=O)O` [EGTA], at H3 cleavage activity, the H3 cleavage activity result is “Significant inhibition”.
